According to patent US20200270588A1, “GLUCOSYL TRANSFERASE POLYPEPTIDES AND METHODS OF USE” (Syngenta Participations AG, priority 2017, published 2020):
Values joined by “and” are separate entries in the source; they are usually repeats but may differ in a detail not shown here. Identical values can stand only once.

Target: T1, Zea mays bx8 glucosyl transferase (SEQ ID 2) (Zea mays, UniProt Q8W2B7)
T1 construct: His tag; made in house
T1 sequence (Q8W2B7 1-459): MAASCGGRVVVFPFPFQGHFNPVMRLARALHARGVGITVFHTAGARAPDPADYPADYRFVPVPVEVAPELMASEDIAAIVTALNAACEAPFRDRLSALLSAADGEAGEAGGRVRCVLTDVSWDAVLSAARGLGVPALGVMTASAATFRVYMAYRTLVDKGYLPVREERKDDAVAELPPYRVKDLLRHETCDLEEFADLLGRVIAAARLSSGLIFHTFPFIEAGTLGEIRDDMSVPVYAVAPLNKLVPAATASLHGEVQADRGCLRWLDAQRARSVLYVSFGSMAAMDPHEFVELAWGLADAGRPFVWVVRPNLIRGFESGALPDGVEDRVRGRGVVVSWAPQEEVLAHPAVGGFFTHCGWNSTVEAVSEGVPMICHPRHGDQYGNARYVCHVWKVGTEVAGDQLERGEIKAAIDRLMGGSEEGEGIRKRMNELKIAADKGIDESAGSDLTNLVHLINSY
Test: LC/MS glucosyl transferase assay (glucoside peak area), purified enzyme
Assay type: biochemical
Conditions: for integrated peak area of beta-glucoside product: LC/MS, about 60 min, ~15 pmol enzyme, relative quantification only
Experimental: In an alternative method for assaying the various enzymes, the test glucosyl transferase enzyme is reacted with substrates exactly as above except that the assay is stopped by adding an equal volume of acetonitrile. Alternatively 50 or 100 μl samples from assay reactions are added to 500 μl ethyl acetate to stop the reaction. In this case samples are then vortexed and 400 μl of the ethyl acetate partition removed, dried down, and resuspended in 100 μl 80:20 acetonitrile/water. The formation of product gluco side and/or disappearance of substrate test herbicide is then monitored directly by LC/MS. Samples are analyzed by LC-MS using an Agilent 1290 liquid chromatography system and Thermo Q-Exactive mass spectrometer. The chromatography is achieved on a Waters Acquity C18 BEH (50×2.1 mm) 1.7 μm particle size column, using a 6 minute gradient run of Water (0.2% formic acid) and Acetonitrile. The Q-Exactive is operated in positive ionisation electrospray mode, using Full scan-AIF mode, at 35,000 resolution, between 100-800 m/z. All analytes are identified from the full scan data to within at least 5 ppm accuracy of their predicted pseudo-molecular ion [M+H]^+ m/z value. In order to obtain quantitative data standard curves are run using herbicides and herbicide glucosides synthesized as standards. Where these synthetic glucosides were not available the LC/MS assay could only be used to provide relative data.
DNA sequences, optimized for E. coli codon usage, were cloned, expressed and the various proteins purified and assayed as described in the foregoing examples. Using the UDP assay (as described in examples 1, 3 and 6) the data obtained from the Zea mays bx8 w/t protein and its variants was noisy due to relatively high background rates in DMSO reagent blanks. The values reported in the table 15 were thus monitored by LC/MS as described in example 1.
DNA sequences, optimized for E. coli codon usage, are cloned, expressed and the various proteins purified and assayed as described in the foregoing examples. As in Example 4, a DNA sequence is designed and synthesized to express the N-terminally his tagged Zea mays bx8 (SEQ ID No: 2). However in this case the DNA sequence is modified to further include a peptide insertion “GIGVD”=SEQ ID No: 102 in place of D442 of SEQ ID No: 2 and as indicated in Table 2. The resultant modified sequence is cloned into the E. coli expression plasmid pET24a using 5′ NdeI and 3′ XhoI restriction sites, expressed, purified and assayed. […] In LC/MS assays run for 30 min and similar to those described in example 7 the integrated peak areas for glucoside product from herbicide V from the w/t Zea mays bx8 SEQ ID NO:2 was 1.5E6 units whereas the corresponding number for the equivalent protein containing the GIGVD peptide insert was 2.5E6 units. […]

Compound | integrated peak area of glucoside product (LC/MS assay run for 30 min, N-terminally his tagged) | integrated peak area of beta-glucoside product
CN1CC(O)N(c2cc(C(F)(F)F)ccn2)C1=O (stereo not shown) [Compound V] | 1.5E6 units | 2.52E+06 and 2.97E+06
CN1CC(O)N(c2cc(C(F)(F)F)c(Cl)cn2)C1=O (stereo not shown) [XI] | – | 1.90E+04 and 2.36E+04 and 1.84E+04
CON1C(=O)N(c2cc(C(F)(F)F)ccn2)C(O)[C@@H]1C (stereo partly shown) [Compound VI] | – | 8.08E+06 and 7.57E+06 and 8.81E+06 and 7.78E+06
